Assay results published in patent US20100168085A1, “Dopamine and agonists and antagonists thereof for modulation of suppressive activity of CD4+CD25+ regulatory T cells” (YESA RESEARCH AND DEVELOPMENT CO. LTD. at the Weizmann …, priority 2003, published 2010).
Values joined by “and” are separate entries in the source; they are usually repeats but may differ in a detail not shown here. Equal entries are not always repeated. “Also recorded” adds a separate entry of the source. Marks after values point to notes of the source that are not given here. Where no end group is shown, it is not given here.

Tests used:
[1] = system: suppressive activity of CD4+CD25+ regulatory T cells (Treg) on Teff proliferation; test: Inhibition assay (co-culturing of Teff with Treg), [3H]-thymidine incorporation; assay type: cell-based, mouse; details: for Effect on ability of Treg to suppress Teff proliferation: Treg preincubated with different concentrations; for Suppressive activity of Treg on Teff, kinase inhibitor treatment: activated Treg incubated with inhibitor
Method: (xvi) Activation of CD4^+CD25^+ regulatory T cells. Purified regulatory T cells (Treg; 0.5×10^6 cells/mL) were activated in RPMI medium supplemented with L-glutamine (2 mM), 2-mercaptoethanol (5×10^−5 M), sodium pyruvate (1 mM), penicillin (100 IU/mL), streptomycin (100 μg/mL), nonessential amino acids (1 mL/100 mL), and autologous serum 2% (vol/vol) in the presence of mrIL-2 (5 ng/mL) and soluble anti-CD3 antibodies (1 ng/mL). Irradiated (2500 rad) splenocytes (1.5×10^6 cells/mL) were added to the culture. Cells were activated for 24 or 96 h. In some of the 96-h experiments, fresh dopamine was added to the culture every 24 h during activation.
(xvii) Inhibition assay (co-culturing of Teff with Treg). Naïve effector T cells (Teff; 50×10^3 cells/well) were co-cultured with decreasing numbers of activated Treg for 72 h in 96-well flat-bottomed plates in the presence of irradiated splenocytes (10^6/mL) supplemented with anti-CD3 antibodies. [^3H]-thymidine (1 μCi) was added for the last 16 h of culture. After the cells were harvested, their [^3H]-thymidine content was analyzed by the use of […].
In this experiment, we examined whether dopamine acts on Treg and alters their suppressive effect on Teff. Suppression of proliferation of Teff, assayed by [^3H]thymidine incorporation, was used as a measure of suppressive effect of Treg (Thornton and Shevach, 1998).
Shevach, 1998, 2000). Inhibition of Treg proliferation, assayed by [^3H]thymidine incorporation, can therefore be taken as a measure of the suppressive effect. We examined the ability of major neurotransmitters and neuropeptides (dopamine, norepinephrine, substance P, and serotonin) to alleviate the Treg-induced suppression of Teff in vitro. Each compound was tested at several concentrations. […] After incubating the activated Treg for 2 h with a neurotransmitter or a neuropeptide, we washed the cells and then co-cultured them with Teff.

[2] = system: mice, glutamate-induced retinal ganglion cell death; test: Intravitreal glutamate toxicity, retinal ganglion cell survival; assay type: in vivo, mouse; details: for Changes in neuronal survival in treated relative to untreated mice (mean±SEM): systemic injection immediately after glutamate intoxication
Method: (iii) Intravitreal glutamate injection. The right eyes of anesthetized mice were punctured with a 27-gauge needle in the upper part of the sclera, and a 10-μL Hamilton syringe with a 30-gauge needle was inserted as far as the vitreal body. A total volume of 1 μl, of L-glutamate (400 nmol) dissolved in saline was injected into the eye.
(iv) Retrograde labeling of retinal ganglion cells. Mice were anesthetized and placed in a stereotactic device. The skull was exposed and kept dry and clean. The bregma was identified and marked. The designated point of injection was at a depth of 2 mm from the brain surface, 2.92 mm behind the bregma in the anteroposterior axis and 0.5 mm lateral to the midline. A window was drilled in the scalp above the designated coordinates in the right and left hemispheres. The neurotracer dye FluoroGold (5% solution in saline; Fluorochrome, Denver, Colo.) was applied (1 μL, at a rate of 0.5 μL/min in each hemisphere) using a Hamilton syringe, and the skin over the wound was sutured.
(xxi) Assessment of mouse retinal ganglion cell survival. Mice were given a lethal dose of pentobarbitone (170 mg/kg). Their eyes were enucleated and the retinas were detached and prepared as flattened whole mounts in 4% paraformaldehyde solution. Labeled cells from 4-6 selected fields of identical size (0.7 mm^2) were counted. The selected fields were located at approximately the same distance from the optic disk (0.3 mm) to overcome the variation in RGC density as a function of distance from the optic disk. Fields were counted under the fluorescence microscope (magnification ×800) by observers blinded to the identity of the retinas. The average number of RGCs per field in each retina was calculated.
Injection of glutamate into the eyes of adult mice causes retinal ganglion cell death that is measurable 1 week after the injection (Mizrahi et al., 2002; Schori et al., 2001a; Katayama et al., 1990). We injected Balb/c mice intraperitoneally (i.p.) with the dopamine, or its specific D1-type agonist SKF-38393 (3.3 mg/kg), or its specific D1-type antagonist SCH-23390 (3 mg/kg), immediately after their exposure to glutamate toxicity. We also injected SCID Balb/c mice with SKF-38393 (3.3 mg/kg) immediately after glutamate intoxication.
Immediately after glutamate intoxication mice were systemically injected with the indicated drugs. Neuronal survival was determined ten days later (see Materials and Methods). The results are expressed by changes (in percentage) in neuronal survival in treated mice relative to untreated mice. Each value represents a mean±SEM of a group of at least 5 animals, and each experiment was performed at least twice, independently. Asterisks (***, P<0.001; **, P<0.01) indicate statistical significance of the presented data from a single experiment using a Student's T-test statistical analysis. (NT—not tested; ns—no statistical significance).

[3] = system: mouse solid melanoma tumor cells M2R; test: M2R melanoma tumor development in mice; assay type: in vivo
Method: To verify the effect of dopamine and its related compounds on tumor growth, C57BL mice were injected with the specific D1-R agonist SKF-38393 (3.3 mg/kg) immediately after inoculation of mouse solid melanoma tumor cells M2R. The experimental group (n=10) received a single injection of SKF-38393, and a control group (n=11) was injected with PBS.
To further isolate the effect of dopamine on the immune system, C57BL mice (n=10) and SCID mice (n=8) were injected with SKF-38393 (3.3 mg/kg) immediately after injecting them with solid tumor cells M2R (FIG. 9c).

[4] = system: phospho-ERK1/2 in Treg and Teff; test: ERK1/2 phosphorylation (intracellular FACS staining, Western blot); assay type: cell-based, mouse; details: activation with anti-CD3 and anti-CD28 for 20 min
Method: (ix) FACS analysis of intracellular labeling of phosphorylated form of ERK. T-cell subpopulations were fixed in 1.5% formaldehyde for 10 min at room temperature, washed, resuspended with vortexing in cold 100% methanol, and incubated for 1 h at 4° C. The cells were then washed with PBS containing 1% bovine serum albumin (BSA) and resuspended in 100 μL of PBS/BSA, and 12.5 μL of anti-phosphoERK1 & 2 (BioSource) was added for 20 min at room temperature. The cells were then washed, resuspended in PBS, and analyzed by FACSCalibur (Becton-Dickinson). As a negative control we incubated the phospho-peptide for 20 min with its antibody and then added the mixture to T cells.
(xix) Western blotting. Cells were stimulated for 20 min with anti-CD3 and anti-CD28 antibodies in the presence or absence of dopamine or SKF-38393. Cell lysates were prepared using RIPA lysis buffer (50 mM Tris, pH 8; 0.1% SDS; 0.5% deoxycholate; 1% NP40; 500 mM NaCl; 10 mM MgCl2) and were then kept on ice for 10 min before being vortexed and centrifuged. Supernatants were collected and 5× sample buffer (containing 25 mM Tris pH 6.8, 2% sodium dodecyl sulfate (SDS), 10% glycerol, 0.1% bromophenol blue, 0.5 M β-mercaptoethanol) was added prior to boiling. Cell extracts were separated by SDS-PAGE (10% polyacrylamide), and blotted onto nitrocellulose. Activated ERK1/2 was detected by probing blots with a 1:30,000 dilution of monoclonal antibody. Total ERK protein was detected by using a 1:10,000 dilution of a polyclonal rabbit antibody. The blots were developed by horseradish peroxidase-conjugated anti-mouse or anti-rabbit Fab and ECL (Amersham). Signals were quantified using NIH Image 1.62.
Treg were activated for 20 min in the presence or absence of dopamine (10^−5 M), and were then subjected to intracellular phosphoprotein staining (Perez and Nolan 2002) and analyzed by flow cytometry. […] As a measure of the background nonspecific staining of the phosphorylated ERK we used a specific peptide of phospho-ERK, which competes for binding of the antibody. The intracellular staining procedure for phospho-ERK detection by FACS was validated by the use of Teff incubated with 20 μM phorbol 12-myristate 13-acetate (PMA), known to stimulate the activity of protein kinase C (PKC) (data not shown).

[5] = system: adhesion of Treg and Teff to chondroitin sulfate proteoglycans (CSPG); test: T cell adhesion to CSPG; assay type: cell-based, mouse
Method: (xiii) T cell adhesion. Adhesion of activated CD4^+CD25^+ and CD4^+CD25^− T cells to CSPG was analyzed as previously described (23). Briefly, flat-bottomed microtiter (96-well) plates were pre-coated with CSPG (1 μg/well, 40 min, 37° C.). ^51Cr-labeled T cells were left untreated or were pre-incubated (30 min, 37° C.) with dopamine or the specified agonist or antagonist (10^−5M). The cells (10^5 cells in 100 μL of RPMI containing 0.1% BSA) were then added to the CSPG-coated wells, incubated (30 min, 37° C.), and washed. Adherent cells were lysed and the resulting supernatants were removed and counted in a γ-counter. Results were expressed as the mean percentage of the total population before adhesion of bound T cells from quadruplicate wells for each experimental group.
One of the main features of T cells is their ability to migrate to tissues in need of rescue or repair [such as diseased or damaged CNS (Hickey, 1999; Flugel et al., 2001). […] We therefore incubated Treg with dopamine for 2 h and then examined their adhesion to chondroitin sulfate proteoglycans (CSPG), extracellular matrix proteins often associated with injured tissues (Jones et al., 2003).
To verify that the effect of dopamine on adhesion of Treg is exerted through the ERK1/2 pathway, we incubated Treg with the ERK1/2 signaling pathway inhibitor PD98059 before carrying out the adhesion assay. […] Since interaction of T cells with CSPG is mediated in part by the CD44 receptor (Henke et al., 1996), and in light of the known dependence of CD44 expression on the ERK signaling pathway, it was conceivable that dopamine might affect the expression of CD44 in Treg.

Treg = Treg apoptosis (propidium iodide sub-G1, annexin V, FACS); assay type: cell-based, mouse; details: Treg incubated with compound
Method: (viii) FACS analysis of annexin V-positive regulatory T cells. PE-stained CD25^+ cells were stained for annexin V-FITC according to the manufacturer's instructions. The cells were scored as described above, and CD25^+ lymphocytes were then gated for analysis of annexin V-positive cells.
(xv) Propidium iodide staining. Cells were fixed in cold ethanol 80% and treated with RNAse. Propidium iodide was then applied, and cell samples were assessed by FACSort.

[6] = system: mice, glutamate-induced retinal ganglion cell death; test: Intravitreal glutamate toxicity, retinal ganglion cell survival; assay type: in vivo, mouse; details: retinas excised 7 days afterwards

## substance P: a pain- and stress-related neurotransmitter (neuropeptide) (RPKPQQFFGLM-NH2; UniProt P20366 58-68, looked up)
[1]
  Effect on ability of Treg to suppress Teff proliferation: no effect

## CN1CCc2cc(Cl)c(O)cc2[C@@H](c2ccccc2)C1 [SCH-23390]
[2]; Balb/c, SCH-23390 3 mg/kg i.p., 3 mg/kg
  Decrease in neuronal survival relative to PBS-injected mice: 11±1.5% and 11%
[2]; Wild type mice
  Changes in neuronal survival in treated relative to untreated mice (mean±SEM): −11 ± 1.5** percentage

## O=c1c(-c2ccc(O)cc2)coc2cc(O)cc(O)c12 [genistein, 4′,5,7-trihydroxy isoflavone]
[1]
  Suppressive activity of Treg on Teff, kinase inhibitor treatment: blocked the suppressive activity
[1]; in the presence of genistein
  Proliferation of Treg themselves: underwent proliferation themselves
[1]; same concentration as used on Treg
  Proliferation of Teff: had no effect

## Oc1cc2c(cc1O)C(c1ccccc1)CNCC2 (racemic) [SKF-38393, (+/−)-1-Phenyl-2,3,4,5-tetrahydro-(1H)-3-benzazepine-7,8-diol.HC1]
[3]; C57BL mice, single injection 3.3 mg/kg immediately after M2R inoculation
  Tumor development: significantly attenuated
[3]; SCID mice, 3.3 mg/kg immediately after M2R inoculation
  Tumor development: No effect
[4]
  Phospho-ERK1/2 in activated Treg, Western blot: reduced
[1]; 10^−5 M
  Effect on suppressive activity of Treg, compound alone: reproduced the dopamine effect
[5]; dopamine 10^−9-10^−5 M, concentration-dependent, agonist 10^−5 M
  Adhesion of Treg to CSPG: mimicked
Treg
  Apoptosis, annexin V staining for phosphatidylserine: No increase in annexin V-labeled cells
[6]; 0.33 mg/kg i.v.
  Neuronal survival compared to vehicle-injected mice: neuroprotective trend, however not significant
[6]; 3.3 mg/kg i.v.
  Neuronal survival compared to vehicle-injected mice: significant increase in neuronal survival
[2]; Balb/c, single i.p. injection, dopamine 0.4 mg/kg, SKF-38393 3.3 mg/kg
  Increase in neuronal survival relative to PBS-treated glutamate-injected controls: 19±3.2%
[2]; SCID Balb/c, 3.3 mg/kg
  Effect on neuronal survival in immune-deficient mice: no effect; also recorded: lack of effect
[2]; SCID mice
  Changes in neuronal survival in treated relative to untreated mice (mean±SEM): 3 ± 1.8 (ns) percentage
[2]; Wild type mice
  Changes in neuronal survival in treated relative to untreated mice (mean±SEM): 19 ± 3.2** percentage

## NCCc1c[nH]c2ccc(O)cc12 [serotonin]
[1]
  Effect on ability of Treg to suppress Teff proliferation: no effect

## NC[C@H](O)c1ccc(O)c(O)c1 [norepinephrine]
[1]; 10^−5 or 10^−7 M for 2 h after 24 h activation
  Effect on suppressive activity of Treg: did not affect the suppressive activity of Treg
[1]
  Effect on ability of Treg to suppress Teff proliferation: no effect

## COc1cccc(-c2cc(=O)c3ccccc3o2)c1N [PD98059]
[1]
  Suppressive activity of Treg on Teff, kinase inhibitor treatment: significantly reduced the suppressive activity; also recorded: almost completely abolished their suppression
[5]; Treg incubated with PD98059 before assay
  Adhesion of Treg to CSPG after ERK1/2 pathway inhibitor: significantly reduced
